Experimental data published in ChEMBL document CHEMBL3045848, “Microwave-assisted solvent-free synthesis of biologically active novel heterocycles from 3-formylchromones” (2011).
Active and inactive are the calls of the source. The calls are words filed in the database; no cut-off is given here.

Legend:
Escherichia coli [1] = assay: Antibacterial activity against Escherichia coli K-12 at 100 ug/ml after 24 hr by filter paper disk method; format: functional; conditions: for zone of inhibition at 100 µg/mL: K-12, 24 h, read-out: DIZ
Staphylococcus aureus [2] = assay: Antibacterial activity against Staphylococcus aureus SA 22 at 100 ug/ml after 24 hr by filter paper disk method; format: functional; conditions: for zone of inhibition at 100 µg/mL: SA 22, 24 h, read-out: DIZ
Candida albicans = assay: Antifungal activity against Candida albicans IOA-109 at 100 ug/ml after 18 to 48 hr; format: functional; conditions: for zone of inhibition at 100 µg/mL: read-out: DIZ
Aspergillus fumigatus [3] = assay: Antifungal activity against Aspergillus fumigatus at 100 ug/ml after 72 hr; format: functional; conditions: for zone of inhibition at 100 µg/mL: read-out: DIZ
Aspergillus niger [4] = assay: Antifungal activity against Aspergillus niger at 100 ug/ml after 72 hr; format: functional; conditions: for zone of inhibition at 100 µg/mL: read-out: DIZ
Bacillus subtilis [5] = assay: Antibacterial activity against Bacillus subtilis MTCC 121 at 100 ug/ml after 24 hr by filter paper disk method; format: functional; conditions: for zone of inhibition at 100 µg/mL: MTCC 121, 24 h, read-out: DIZ
Salmonella typhimurium [6] = assay: Antibacterial activity against Salmonella enterica subsp. enterica serovar Typhimurium MTCC 98 at 100 ug/ml after 24 hr by filter paper disk method; format: functional; conditions: for zone of inhibition at 100 µg/mL: MTCC 98, 24 h, read-out: DIZ
Staphylococcus aureus [7] = assay: Antibacterial activity against Staphylococcus aureus SA 22 at 30 ug/disc after 24 hr by filter paper disk method; format: functional; conditions: SA 22, 24 h, read-out: DIZ
Bacillus subtilis [8] = assay: Antibacterial activity against Bacillus subtilis MTCC 121 at 30 ug/disk after 24 hr by filter paper disk method; format: functional; conditions: MTCC 121, 24 h, read-out: DIZ
Salmonella typhimurium [9] = assay: Antibacterial activity against Salmonella enterica subsp. enterica serovar Typhimurium MTCC 98 at 30 ug/disc after 24 hr by filter paper disk method; format: functional; conditions: MTCC 98, 24 h, read-out: DIZ
Escherichia coli [10] = assay: Antibacterial activity against Escherichia coli K-12 at 30 ug/disc after 24 hr by filter paper disk method; format: functional; conditions: K-12, 24 h, read-out: DIZ
Aspergillus niger [11] = assay: Antifungal activity against Aspergillus niger at 30 ug/disk after 72 hr; format: functional, organism-based
Aspergillus fumigatus [12] = assay: Antifungal activity against Aspergillus fumigatus at 30 ug/disk after 72 hr; format: functional, organism-based

| Molecule | zone of inhibition at 100 µg/mL (Escherichia coli [1]) | zone of inhibition at 100 µg/mL (Staphylococcus aureus [2]) | zone of inhibition at 100 µg/mL (Candida albicans) | diameter of the inhibition zone (DIZ) (Aspergillus fumigatus [3]) | zone of inhibition at 100 µg/mL (Aspergillus niger [4]) | zone of inhibition at 100 µg/mL (Bacillus subtilis [5]) | zone of inhibition at 100 µg/mL (Salmonella typhimurium [6]) | zone of inhibition at 100 µg/mL (Aspergillus fumigatus [3]) | diameter of the inhibition zone (DIZ) (Aspergillus niger [4]) | diameter of the inhibition zone (DIZ) (Bacillus subtilis [5]) | other results |
| --- | --- | --- | --- | --- | --- | --- | --- | --- | --- | --- | --- |
| CN1C(=O)C(C2=NN(c3nc4ccccc4s3)C(c3coc4ccccc4c3=O)C2)C(=O)N(C)C1=O (stereo not given) | 18 mm | 13 mm | 14 mm | inactive | 14 mm | 10 mm | 9 mm |  |  |  |  |
| Cc1ccc2occ(/C=C/C(=O)C3C(=O)N(C)C(=O)N(C)C3=O)c(=O)c2c1 | 20 mm | 12 mm | 12 mm |  | 12 mm | 16 mm | 12 mm | 14 mm |  |  |  |
| Cc1ccc2occ(C(Br)C(Br)C(=O)C3C(=O)N(C)C(=O)N(C)C3=O)c(=O)c2c1 (stereo not given) | 15 mm | 12 mm | 17 mm | inactive |  |  | 10 mm |  | inactive | inactive |  |
| CN1C(=O)C(C(=O)C(Br)C(Br)c2coc3ccccc3c2=O)C(=O)N(C)C1=O (stereo not given) | 14 mm | 8 mm | 15 mm | inactive |  |  | 16 mm |  | inactive | inactive |  |
| O=C(N[C@H](CO)[C@H](O)c1ccc([N+](=O)[O-])cc1)C(Cl)Cl [CHLORAMPHENICOL] |  |  |  | inactive |  |  |  |  | inactive |  | diameter of the inhibition zone (DIZ) (Candida albicans): inactive; zone of inhibition at 30 µg/disc (Staphylococcus aureus [7]): 26 mm; zone of inhibition at 30 µg/disc (Bacillus subtilis [8]): 24 mm; zone of inhibition at 30 µg/disc (Salmonella typhimurium [9]): 20 mm; zone of inhibition at 30 µg/disc (Escherichia coli [10]): 25 mm |
| NYSTATIN |  |  |  |  |  |  |  |  |  | inactive | diameter of the inhibition zone (DIZ) (Escherichia coli [1]): inactive; diameter of the inhibition zone (DIZ) (Staphylococcus aureus [2]): inactive; inhibition zone (IZ) (Aspergillus niger [11]): 18 mm; diameter of the inhibition zone (DIZ) (Salmonella typhimurium [6]): inactive; inhibition zone (IZ) (Aspergillus fumigatus [12]): 18 mm |
| CN1C(=O)C(C2=NN(c3ccccc3)C(c3coc4ccccc4c3=O)C2)C(=O)N(C)C1=O (stereo not given) | 8 mm |  | 15 mm |  |  |  | 12 mm | 12 mm | inactive | inactive | diameter of the inhibition zone (DIZ) (Staphylococcus aureus [2]): inactive |
| CN1C(=O)C(C2=NNC(c3coc4ccccc4c3=O)C2)C(=O)N(C)C1=O (stereo not given) | 15 mm | 16 mm | 14 mm |  | 8 mm | 13 mm | 12 mm | 14 mm |  |  |  |
| CN1C(=O)C(C2=NC(=O)NC(c3coc4ccccc4c3=O)C2)C(=O)N(C)C1=O (stereo not given) | 15 mm | 8 mm |  | inactive |  |  | 11 mm |  | inactive | inactive | diameter of the inhibition zone (DIZ) (Candida albicans): inactive |
| CN1C(=O)C(c2cc(-c3coc4ccccc4c3=O)[nH]n2)C(=O)N(C)C1=O | 12 mm | 14 mm |  | inactive |  | 12 mm | 12 mm |  | inactive |  | diameter of the inhibition zone (DIZ) (Candida albicans): inactive |
| CN1C(=O)C(C(=O)/C=C/c2coc3ccccc3c2=O)C(=O)N(C)C1=O | 20 mm | 15 mm | 16 mm |  | 8 mm | 20 mm | 16 mm | 10 mm |  |  |  |
| Cc1ccc2occ(C3CC(C4C(=O)N(C)C(=O)N(C)C4=O)=NN3)c(=O)c2c1 (stereo not given) | 12 mm | 11 mm | 17 mm |  |  | 13 mm | 10 mm | 10 mm | inactive |  |  |
| Cc1ccc2occ(C3CC(C4C(=O)N(C)C(=O)N(C)C4=O)=NN3c3ccccc3)c(=O)c2c1 (stereo not given) |  |  | 15 mm | inactive |  |  | 19 mm |  | inactive | inactive | diameter of the inhibition zone (DIZ) (Escherichia coli [1]): inactive; diameter of the inhibition zone (DIZ) (Staphylococcus aureus [2]): inactive |
